According to patent publication US20240215578A1 (priority 2022, published 2024):

Tests used:
[1] = test system: R. solanacearum; format: cell-based; settings: Oxford cup, 37° C., 16-18 hours, FIG. 1
[2] = test system: R. solanacearum; settings: for bactericidal activity against R. solanacearum: from data in Table 4
[3] = test system: E. coli
[4] = test system: E. carotovora

Structure (SMILES)	bactericidal activity (zone of inhibition), preliminary screening [1]	LC50 [2]	LC50 [3]	LC50 [4]	activity against E. carotovora compared with the control drugs [4]	activity against E. coli compared with the control drugs [3]	bactericidal activity against R. solanacearum [2]
CCn1cc(C(=O)O)c(=O)c2cc(F)c(Cl)nc21 [Compound I38]	significant bactericidal activity	12.724 ppm	12.643 ppm	0.264 ppm	more active against E. carotovora than the control drugs	–	–
O=C(O)c1cn(C2CC2)c2ccccc2c1=O [Compound I2]	significant bactericidal activity	13.790 ppm	0.913 ppm	5.284 ppm	–	more active against E. coli than the control drugs	–
O=C(O)c1cn(C2CC2)c2nc(Cl)c(F)cc2c1=O [Compound I40]	significant bactericidal activity	0.002 ppm	0.064 ppm	4.040 ppm	more active against E. carotovora than the control drugs	more active against E. coli than the control drugs	significant bactericidal activity
[H]/N=C(/N)N[C@H]1[C@H](O)[C@@H](O)[C@H](O[C@@H]2O[C@@H](C)[C@](O)(C=O)[C@H]2O[C@@H]2O[C@@H](CO)[C@H](O)[C@@H](O)[C@@H]2NC)[C@@H](N/C(N)=N\[H])[C@@H]1O [Streptomycin, reference compound]	–	0.169 ppm	1.918 ppm	4.519 ppm	–	–	–
CCn1cc(C(=O)O)c(=O)c2ccc(C)nc21 [Compound I36]	significant bactericidal activity	30.519 ppm	37.917 ppm	15.743 ppm	–	–	–
O=C(O)c1cn(C2CC2)c2nc(N3CCNCC3)c(F)cc2c1=O [Compound I44]	significant bactericidal activity	0.284 ppm	0.0000091 ppm	0.00018 ppm	more active against E. carotovora than the control drugs	more active against E. coli than the control drugs	significant bactericidal activity
